According to ChEMBL document CHEMBL3734680, “Synthesis and relationship of stability and biological activity of new DSS and TMP conjugates” (Medchemcomm, 2015):
Activity calls are given as the source filed them. No cut-off for these calls is given here.

Key:
carboxyesterase = assay: Half life of compound assessed as carboxyesterase (unknown origin)-mediated drug degradation at 0.655 x 10^3 uM by HPLC analysis; format: ADME; settings: human
H9c2 [1] = assay: Cardioprotective activity against t-BHP-induced injury in rat H9c2 cells preincubated for 1 hr followed by t-BHP challenge for 12 hrs by MTT assay; format: functional, cell-based
H9c2 [2] = assay: Induction of mitochondrial biogenesis in rat H9c2 cells assessed as upregulation of PGC-1beta mRNA expression at 30 uM after 24 hrs by RT-PCR analysis relative to control; format: functional, cell-based
H9c2 [3] = assay: Induction of mitochondrial biogenesis in rat H9c2 cells assessed as upregulation of Tfam mRNA expression at 30 uM after 24 hrs by RT-PCR analysis relative to control; format: functional, cell-based
H9c2 [4] = assay: Cardioprotective activity against doxorubicin-induced injury in rat H9c2 cells preincubated for 1 hr followed by doxorubicin challenge for 24 hrs by MTT assay; format: functional, cell-based
H9c2 [5] = assay: Induction of mitochondrial biogenesis in rat H9c2 cells assessed as mitochondrial DNA replication after 24 hrs by Mitotracker/DAPI/FITC-staining based immunofluorescence analysis relative to control; format: functional, cell-based
H9c2 [6] = assay: Cardioprotective activity against doxorubicin-induced injury in rat H9c2 cells assessed as inhibition of LDH leakage preincubated for 1 hr followed by doxorubicin challenge for 24 hrs; format: functional, cell-based

Row | half-life (carboxyesterase) | SMILES | Activity (H9c2 [1]) | Activity (H9c2 [2]) | Activity (H9c2 [3]) | Activity (H9c2 [4]) | Activity (H9c2 [5]) | Activity (H9c2 [6])
1 | 10.6 min | CC(=O)Oc1ccc(C[C@@H](OC(C)=O)C(=O)OC(C)c2nc(C)c(C)nc2C)cc1OC(C)=O (stereo partly drawn) | Active |  |  |  |  | 
2 | 10.3 min | CC(=O)Oc1ccc(CC(OC(C)=O)C(=O)OCc2nc(C)c(C)nc2C)cc1OC(C)=O (stereo not drawn) | Active |  |  |  |  | 
3 | 11.3 min | C=CCC(OC(=O)[C@@H](Cc1ccc(OC(C)=O)c(OC(C)=O)c1)OC(C)=O)c1nc(C)c(C)nc1C (stereo partly drawn) | Active |  |  |  |  | 
4 | 20.5 min | C=CCC(CC=C)(OC(=O)[C@@H](Cc1ccc(OC(C)=O)c(OC(C)=O)c1)OC(C)=O)c1nc(C)c(C)nc1C | Active | Active | Active | Dose-dependent effect | Active | Dose-dependent effect
